In PMC10177510, “A Multicenter, Open-Label, Phase I/II Study of FN-1501 in Patients with Advanced Solid Tumors” (Cancers, 2023):

Test system: advanced solid tumors
Experiment: Anti-tumor activity in patients (RECIST best response, PFS, OS)
Format: in vivo, human
Procedure: Among 64 pts enrolled in the trial, 16 failed screening and 48 (75%) were treated with FN-1501 at one of the dose levels tested. Eligible pts were ≥18 years of age with (a) relapsed or refractory AML that had exhausted or was ineligible for therapeutic options, or with ≥5% blasts in the bone marrow according to World Health Organization (WHO) 2016 criteria; or (b) solid tumors evaluable per RECIST v1.1 that had exhausted (or were ineligible for) therapeutic options likely to convey clinical benefit. Other inclusion criteria included Eastern Cooperative Oncology Group (ECOG) performance status (PS) of <2 and life expectancy ≥3 months. Pts with a clinically controlled central nervous system (CNS) tumor or metastasis and adequate organ function were eligible to participate. Ongoing use of strong CYP3A inhibitors or inducers was exclusionary unless participants were willing and able to change to use of an equivalent medication without this profile. Other exclusion criteria included current or recent major surgical procedures, anticancer therapy (chemotherapy, immunotherapy), biologic, live virus vaccine, or investigational therapy within 21 days prior to initiation of the study treatment. For patients in the AML cohort, acute promyelocytic leukemia (APML), chronic myelogenous leukemia in blast crisis (BCR-ABL), or active CNS leukemia were exclusionary.
Descriptive statistics were used for all safety, PK, and efficacy parameters. Data were summarized using descriptive statistics (number of pts, mean, median, standard deviation, minimum, and maximum) for continuous variables and using frequencies and percentages for discrete variables. Time-to-event variables were summarized using Kaplan–Meier methods and figures for the estimated median time.

CN1CCN(Cc2ccc(NC(=O)c3[nH]ncc3Nc3ncnc4[nH]ccc34)cc2)CC1 [FN-1501]
Progressive Disease, best RECIST response, n (%) (40 mg/day, N = 4, ITT): 1 (25)
Stable Disease, best RECIST response, n (%) (40 mg/day, N = 4, ITT): 1 (25)
Complete Response, best RECIST response, n (%) (54 mg/day, N = 3, ITT): 0
DCR (54 mg/day, N = 3, ITT): 0.0%
Landmark Progression Free Survival Rate at 3 months (Table S6, Overall Survival) (54 mg/day, N = 3, ITT): 66.7%
Landmark Progression Free Survival Rate at 6 months (Table S6, Overall Survival) (54 mg/day, N = 3, ITT): 0.0%
Landmark Progression Free Survival Rate at 9 months (Table S6, Overall Survival) (54 mg/day, N = 3, ITT): 0.0%
Landmark Progression Free Survival Rate at 12 months (Table S6, Overall Survival) (54 mg/day, N = 3, ITT): 0.0%
Median overall survival (54 mg/day, N = 3, ITT): 3.2 months
Median progression-free survival (54 mg/day, N = 3, ITT): 1.4 months
ORR (54 mg/day, N = 3, ITT): 0.0%
Partial Response, best RECIST response, n (%) (54 mg/day, N = 3, ITT): 0
Progression Free Survival Rate at 3 months (54 mg/day, N = 3, ITT): 0.0%
Progression Free Survival Rate at 6 months (54 mg/day, N = 3, ITT): 0.0%
Progression Free Survival Rate at 9 months (54 mg/day, N = 3, ITT): 0.0%
Progression Free Survival Rate at 12 months (54 mg/day, N = 3, ITT): 0.0%
Progressive Disease, best RECIST response, n (%) (54 mg/day, N = 3, ITT): 2
Stable Disease, best RECIST response, n (%) (54 mg/day, N = 3, ITT): 0
Complete Response, best RECIST response, n (%) (72 mg/day, N = 3, ITT): 0
DCR (72 mg/day, N = 3, ITT): 0.0%
Median progression-free survival (72 mg/day, N = 3, ITT): 1.3 months
ORR (72 mg/day, N = 3, ITT): 0.0%
Partial Response, best RECIST response, n (%) (72 mg/day, N = 3, ITT): 0
Progression Free Survival Rate at 3 months (72 mg/day, N = 3, ITT): 0.0%
Progression Free Survival Rate at 6 months (72 mg/day, N = 3, ITT): 0.0%
Progression Free Survival Rate at 9 months (72 mg/day, N = 3, ITT): 0.0%
Progression Free Survival Rate at 12 months (72 mg/day, N = 3, ITT): 0.0%
Progressive Disease, best RECIST response, n (%) (72 mg/day, N = 3, ITT): 3
Stable Disease, best RECIST response, n (%) (72 mg/day, N = 3, ITT): 0
Complete Response, best RECIST response, n (%) (96 mg/day, N = 5, ITT): 0
DCR (96 mg/day, N = 5, ITT): 40.0%
Landmark Progression Free Survival Rate at 3 months (Table S6, Overall Survival) (96 mg/day, N = 5, ITT): 75.0%
Landmark Progression Free Survival Rate at 6 months (Table S6, Overall Survival) (96 mg/day, N = 5, ITT): 37.5%
Landmark Progression Free Survival Rate at 9 months (Table S6, Overall Survival) (96 mg/day, N = 5, ITT): 37.5%
Landmark Progression Free Survival Rate at 12 months (Table S6, Overall Survival) (96 mg/day, N = 5, ITT): 37.5%
Median overall survival (96 mg/day, N = 5, ITT): 3.1 months
Median progression-free survival (96 mg/day, N = 5, ITT): 2.7 months
ORR (96 mg/day, N = 5, ITT): 0.0%
Partial Response, best RECIST response, n (%) (96 mg/day, N = 5, ITT): 0
Progression Free Survival Rate at 3 months (96 mg/day, N = 5, ITT): 37.5%
Progression Free Survival Rate at 6 months (96 mg/day, N = 5, ITT): 0.0%
Progression Free Survival Rate at 9 months (96 mg/day, N = 5, ITT): 0.0%
Progression Free Survival Rate at 12 months (96 mg/day, N = 5, ITT): 0.0%
Progressive Disease, best RECIST response, n (%) (96 mg/day, N = 5, ITT): 0
Stable Disease, best RECIST response, n (%) (96 mg/day, N = 5, ITT): 2 (40)
Complete Response, best RECIST response, n (%) (128 mg/day, N = 3, ITT): 0
Median progression-free survival (128 mg/day, N = 3, ITT): 3.1 months
ORR (128 mg/day, N = 3, ITT): 0.0%
Partial Response, best RECIST response, n (%) (128 mg/day, N = 3, ITT): 0
Progression Free Survival Rate at 3 months (128 mg/day, N = 3, ITT): 66.7%
Progression Free Survival Rate at 6 months (128 mg/day, N = 3, ITT): 0.0%
Progression Free Survival Rate at 9 months (128 mg/day, N = 3, ITT): 0.0%
Progression Free Survival Rate at 12 months (128 mg/day, N = 3, ITT): 0.0%
Progressive Disease, best RECIST response, n (%) (128 mg/day, N = 3, ITT): 1 (33)
Stable Disease, best RECIST response, n (%) (128 mg/day, N = 3, ITT): 1 (33)
Complete Response, best RECIST response, n (%) (170 mg/day, N = 4, ITT): 0
DCR (170 mg/day, N = 4, ITT): 50.0%
Median progression-free survival (170 mg/day, N = 4, ITT): 2.2 months
ORR (170 mg/day, N = 4, ITT): 0.0%
Partial Response, best RECIST response, n (%) (170 mg/day, N = 4, ITT): 0
Progression Free Survival Rate at 3 months (170 mg/day, N = 4, ITT): 33.3%
Progression Free Survival Rate at 6 months (170 mg/day, N = 4, ITT): 33.3%
Progression Free Survival Rate at 9 months (170 mg/day, N = 4, ITT): 33.3%
Progression Free Survival Rate at 12 months (170 mg/day, N = 4, ITT): 0.0%
Progressive Disease, best RECIST response, n (%) (170 mg/day, N = 4, ITT): 1 (25)
Stable Disease, best RECIST response, n (%) (170 mg/day, N = 4, ITT): 2 (50)
Complete Response, best RECIST response, n (%) (226 mg/day, N = 4, ITT): 0
DCR (226 mg/day, N = 4, ITT): 0.0%
Landmark Progression Free Survival Rate at 3 months (Table S6, Overall Survival) (226 mg/day, N = 4, ITT): 66.7%
Landmark Progression Free Survival Rate at 6 months (Table S6, Overall Survival) (226 mg/day, N = 4, ITT): 66.7%
Landmark Progression Free Survival Rate at 9 months (Table S6, Overall Survival) (226 mg/day, N = 4, ITT): 66.7%
Landmark Progression Free Survival Rate at 12 months (Table S6, Overall Survival) (226 mg/day, N = 4, ITT): 66.7%
Median progression-free survival (226 mg/day, N = 4, ITT): 1.1 months
ORR (226 mg/day, N = 4, ITT): 0.0%
Partial Response, best RECIST response, n (%) (226 mg/day, N = 4, ITT): 0
Progression Free Survival Rate at 3 months (226 mg/day, N = 4, ITT): 0.0%
Progression Free Survival Rate at 6 months (226 mg/day, N = 4, ITT): 0.0%
Progression Free Survival Rate at 9 months (226 mg/day, N = 4, ITT): 0.0%
Progression Free Survival Rate at 12 months (226 mg/day, N = 4, ITT): 0.0%
Progressive Disease, best RECIST response, n (%) (226 mg/day, N = 4, ITT): 1 (25)
Stable Disease, best RECIST response, n (%) (226 mg/day, N = 4, ITT): 0
Duration of partial response (1 patient, 40 mg/day, advanced endometrial cancer): 4.2 months
Complete Response, best RECIST response, n (%) (Total, N = 48, ITT): 0
DCR (Total, N = 48, ITT): 33.3%
Landmark Progression Free Survival Rate at 3 months (Table S6, Overall Survival) (Total, N = 48, ITT): 71.7%
Median overall survival (Total, N = 48, ITT): 8.2 months
Median progression-free survival (Total, N = 48, ITT): 1.8 months
ORR (Total, N = 48, ITT): 2.1%
Partial Response, best RECIST response, n (%) (Total, N = 48, ITT): 1 (2)
Progression Free Survival Rate at 3 months (Total, N = 48, ITT): 31.1%
Progression Free Survival Rate at 6 months (Total, N = 48, ITT): 11.3%
Progression Free Survival Rate at 9 months (Total, N = 48, ITT): 5.7%
Progression Free Survival Rate at 12 months (Total, N = 48, ITT): 2.8%
Progressive Disease, best RECIST response, n (%) (Total, N = 48, ITT): 18
Stable Disease, best RECIST response, n (%) (Total, N = 48, ITT): 15 (31)
Patients with progressive disease (PD) as best response by RECIST (all doses): 38%
Patients with stable disease (SD) as best response by RECIST (all doses): 31%
Remaining response-evaluable pts with PD (all doses): 67%
